This note sets out measurements from patent US11987588B2, “Modulators of the beta-3 adrenergic receptor useful for the treatment or prevention of heart failure and disorders related thereto” (Arena Pharmaceuticals, Inc., priority 2017, dated 2024).

The target in the test is Beta-3 Adrenergic Receptor (Homo sapiens (Human), UniProt P13945). Nature of the test: Homogeneous Time-Resolved Fluorescence (HTRF) cAMP antagonist assay, IC50 determination. In kind it is cell-based. The settings on record: CHO-K1 cells stably expressing recombinant receptor, isoproterenol at EC90. The gist of the method: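 In this functional readout, recombinant CHO-K1 cells received compound, then isoproterenol at its EC90. After 1 h at room temperature, cAMP levels were determined by HTRF using an on-plate standard curve, and IC50 values were fitted.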
Sequence of Beta-3 Adrenergic Receptor (P13945 whole entry, species assumed): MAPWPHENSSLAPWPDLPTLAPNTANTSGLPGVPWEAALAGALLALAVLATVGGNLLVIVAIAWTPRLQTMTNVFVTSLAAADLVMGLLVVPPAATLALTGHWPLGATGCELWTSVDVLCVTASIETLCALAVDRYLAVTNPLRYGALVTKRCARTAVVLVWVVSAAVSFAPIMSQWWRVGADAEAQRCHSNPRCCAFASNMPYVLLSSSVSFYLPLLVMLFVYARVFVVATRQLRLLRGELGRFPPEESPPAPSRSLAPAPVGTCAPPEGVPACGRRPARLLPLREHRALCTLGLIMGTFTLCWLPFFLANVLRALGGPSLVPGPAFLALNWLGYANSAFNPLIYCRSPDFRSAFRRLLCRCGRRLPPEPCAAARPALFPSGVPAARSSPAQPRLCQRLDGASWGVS

Take `CNS(=O)(=O)c1cccc(OC[C@@H](O)CN[C@H]2COC3(CCN(S(=O)(=O)c4cnc5c(c4)CCO5)CC3)C2)c1` [Compound 504, 3-((S)-3-((R)-8-(2,3-dihydrofuro[2,3-b]pyridin-5-ylsulfonyl)-1-oxa-8-azaspiro[4.5]decan-3-ylamino)-2-hydroxypropoxy)-N-methylbenzenesulfonamide]: the IC50 worked out at 217 nM. Next, `CNS(=O)(=O)c1cccc(OC[C@@H](O)CNC2COC3(CCN(S(=O)(=O)c4cccc(-c5ccc(CNCCO)cc5)c4)CC3)C2)c1` (stereo partly drawn) [Compound 304, 3-((2S)-2-hydroxy-3-(8-(4′-((2-hydroxyethylamino)methyl)biphenyl-3-ylsulfonyl)-1-oxa-8-azaspiro[4.5]decan-3-ylamino)propoxy)-N-methylbenzenesulfonamide]: 43 nM. In the case of `O=S(=O)(NCC(F)F)c1cccc(OC[C@@H](O)CNC2COC3(CCN(S(=O)(=O)c4ccc5ccccc5c4)CC3)C2)c1` (stereo partly drawn) [Compound 9, N-(2,2-difluoroethyl)-3-((2S)-2-hydroxy-3-(8-(naphthalen-2-ylsulfonyl)-1-oxa-8-azaspiro[4.5]decan-3-ylamino)propoxy)benzenesulfonamide], the IC50 was 107 nM. With `CNS(=O)(=O)c1cccc(OC[C@@H](O)CNC2COC3(CCN(S(=O)(=O)c4ccc(Cl)s4)CC3)C2)c1` (stereo partly drawn) [Compound 181, 3-((2S)-3-(8-(5-chlorothiophen-2-ylsulfonyl)-1-oxa-8-azaspiro[4.5]decan-3-ylamino)-2-hydroxypropoxy)-N-methylbenzenesulfonamide], the half-maximal inhibitory concentration (IC50) was 24.3 nM. Consider `CNS(=O)(=O)c1cccc(OC[C@@H](O)CNC2COC3(CCN(S(=O)(=O)c4cc(Cl)ccc4Cl)CC3)C2)c1` (stereo partly drawn) [Compound 140, 3-((2S)-3-(8-(2,5-dichlorophenylsulfonyl)-1-oxa-8-azaspiro[4.5]decan-3-ylamino)-2-hydroxypropoxy)-N-methylbenzenesulfonamide], for which the IC50 is 11.3 nM.

As to `CCOc1ccc(-c2ccc(CN)cc2)cc1S(=O)(=O)N1CCC2(CC1)C[C@H](NC[C@H](O)COc1cccc(S(=O)(=O)NC)c1)CO2` [Compound 419, 3-((S)-3-((S)-8-(4′-(aminomethyl)-4-ethoxybiphenyl-3-ylsulfonyl)-1-oxa-8-azaspiro[4.5]decan-3-ylamino)-2-hydroxypropoxy)-N-methylbenzenesulfonamide], the concentration for half-maximal inhibition (IC50) turned out to be 9.69 nM. On to `NS(=O)(=O)c1cccc(OC[C@@H](O)CN[C@H]2COC3(CCN(S(=O)(=O)c4cnc5ccccc5c4O)CC3)C2)c1` [Compound 548, 3-((S)-2-hydroxy-3-((R)-8-(4-hydroxyquinolin-3-ylsulfonyl)-1-oxa-8-azaspiro[4.5]decan-3-ylamino)propoxy)benzenesulfonamide], for which the half-inhibitory concentration (IC50) worked out at 14.3 nM. As for `CC(C)CCNS(=O)(=O)c1cccc(OC[C@@H](O)CNC2COC3(CCN(S(=O)(=O)c4ccc5ccccc5c4)CC3)C2)c1` (stereo partly drawn) [Compound 98, 3-((2S)-2-hydroxy-3-(8-(naphthalen-2-ylsulfonyl)-1-oxa-8-azaspiro[4.5]decan-3-ylamino)propoxy)-N-isopentylbenzenesulfonamide], the IC50 was 71.1 nM.

As for `CN(C)S(=O)(=O)c1cccc(OC[C@@H](O)CNC2COC3(CCN(S(=O)(=O)c4ccc5c(c4)CCCC5)CC3)C2)c1` (stereo partly drawn) [Compound 253, 3-((2S)-2-hydroxy-3-(8-(5,6,7,8-tetrahydronaphthalen-2-ylsulfonyl)-1-oxa-8-azaspiro[4.5]decan-3-ylamino)propoxy)-N,N-dimethylbenzenesulfonamide], the IC50 was found to be 22.6 nM.

For the molecule `O=S(=O)(NCCO)c1cccc(OC[C@@H](O)CNC2COC3(CCN(S(=O)(=O)c4ccc5ccccc5c4)CC3)C2)c1` (stereo partly drawn) [Compound 12, 3-((2S)-2-hydroxy-3-(8-(naphthalen-2-ylsulfonyl)-1-oxa-8-azaspiro[4.5]decan-3-ylamino)propoxy)-N-(2-hydroxyethyl)benzenesulfonamide], the concentration for half-maximal inhibition (IC50) stood at 31.7 nM.

For the molecule `CNS(=O)(=O)c1cccc(OC[C@@H](O)CNC2COC3(CCN(S(=O)(=O)c4ccc5c(c4)CC(=O)N5)CC3)C2)c1` (stereo partly drawn) [Compound 182, 3-((2S)-2-hydroxy-3-(8-(2-oxoindolin-5-ylsulfonyl)-1-oxa-8-azaspiro[4.5]decan-3-ylamino)propoxy)-N-methylbenzenesulfonamide], the IC50 came to 105 nM.

For the molecule `CC(C)(C)NS(=O)(=O)c1cccc(OC[C@@H](O)CNC2COC3(CCN(S(=O)(=O)c4ccc5ccccc5c4)CC3)C2)c1` (stereo partly drawn) [Compound 94, N-tert-butyl-3-((2S)-2-hydroxy-3-(8-(naphthalen-2-ylsulfonyl)-1-oxa-8-azaspiro[4.5]decan-3-ylamino)propoxy)benzenesulfonamide], the 50% inhibitory concentration (IC50) was determined as 59.8 nM. Consider `CNS(=O)(=O)c1cccc(OC[C@@H](O)CNC2COC3(CCN(S(=O)(=O)c4cc(F)ccc4Cl)CC3)C2)c1` (stereo partly drawn) [Compound 202, 3-((2S)-3-(8-(2-chloro-5-fluorophenylsulfonyl)-1-oxa-8-azaspiro[4.5]decan-3-ylamino)-2-hydroxypropoxy)-N-methylbenzenesulfonamide], for which the IC50 was 10.8 nM. In the case of `CNS(=O)(=O)c1cccc(OC[C@@H](O)CN[C@@H]2COC3(CCN(S(=O)(=O)c4cc(OC)cc(-c5ccc(CN)cc5)c4)CC3)C2)c1` [Compound 449, 3-((S)-3-((S)-8-(4′-(aminomethyl)-5-methoxybiphenyl-3-ylsulfonyl)-1-oxa-8-azaspiro[4.5]decan-3-ylamino)-2-hydroxypropoxy)-N-methylbenzenesulfonamide], the half-inhibitory concentration (IC50) worked out at 12.2 nM.

For the molecule `CNS(=O)(=O)c1cccc(OC[C@@H](O)CN[C@H]2COC3(CCN(S(=O)(=O)c4cnc5[nH]ncc5c4)CC3)C2)c1` [Compound 490, 3-((S)-3-((R)-8-(1H-pyrazolo[3,4-b]pyridin-5-ylsulfonyl)-1-oxa-8-azaspiro[4.5]decan-3-ylamino)-2-hydroxypropoxy)-N-methylbenzenesulfonamide], the 50% inhibitory concentration (IC50) stood at 37.3 nM. Take `CN(C)CCCNS(=O)(=O)c1cccc(OC[C@@H](O)CNC2COC3(CCN(S(=O)(=O)c4ccc5c(c4)N(C)CCO5)CC3)C2)c1` (stereo partly drawn) [Compound 316, N-(3-(dimethylamino)propyl)-3-((2S)-2-hydroxy-3-(8-(4-methyl-3,4-dihydro-2H-benzo[b][1,4]oxazin-6-ylsulfonyl)-1-oxa-8-azaspiro[4.5]decan-3-ylamino)propoxy)benzenesulfonamide]: the IC50 stood at 1940 nM. As for `Cc1cc(S(=O)(=O)N2CCC3(CC2)CC(NC[C@H](O)COc2cccc(S(=O)(=O)NCCCN(C)C)c2)CO3)ccc1Br` (stereo partly drawn) [Compound 310, 3-((2S)-3-(8-(4-bromo-3-methylphenylsulfonyl)-1-oxa-8-azaspiro[4.5]decan-3-ylamino)-2-hydroxypropoxy)-N-(3-(dimethylamino)propyl)benzenesulfonamide], the IC50 is 877 nM.

As for `CN(C1CC1)S(=O)(=O)c1cccc(OC[C@@H](O)CNC2COC3(CCN(S(=O)(=O)c4ccc5ccccc5c4)CC3)C2)c1` (stereo partly drawn) [Compound 90, N-cyclopropyl-3-((2S)-2-hydroxy-3-(8-(naphthalen-2-ylsulfonyl)-1-oxa-8-azaspiro[4.5]decan-3-ylamino)propoxy)-N-methylbenzenesulfonamide], the IC50 stood at 49.2 nM. For `CNS(=O)(=O)c1cccc(OC[C@@H](O)CN[C@H]2COC3(CCN(c4cnccn4)CC3)C2)c1` [Compound 586, 3-((S)-2-hydroxy-3-((R)-8-(pyrazin-2-yl)-1-oxa-8-azaspiro[4.5]decan-3-ylamino)propoxy)-N-methylbenzenesulfonamide] the value was 762 nM. Next, `CNS(=O)(=O)c1cccc(OC[C@@H](O)CNC2COC3(CCN(S(=O)(=O)c4cccc(C(F)(F)F)c4)CC3)C2)c1` (stereo partly drawn) [Compound 38, 3-((2S)-2-hydroxy-3-(8-(3-(trifluoromethyl)phenylsulfonyl)-1-oxa-8-azaspiro[4.5]decan-3-ylamino)propoxy)-N-methylbenzenesulfonamide]: 18.7 nM. Take `CNS(=O)(=O)c1cccc(OC[C@@H](O)CNC2COC3(CCN(S(=O)(=O)c4cccc(-c5ccc(CNCCN(C)C)cc5)c4)CC3)C2)c1` (stereo partly drawn) [Compound 305, 3-((2S)-3-(8-(4′-((2-(dimethylamino)ethylamino)methyl)biphenyl-3-ylsulfonyl)-1-oxa-8-azaspiro[4.5]decan-3-ylamino)-2-hydroxypropoxy)-N-methylbenzenesulfonamide]: the IC50 worked out at 63.5 nM.

For `CONS(=O)(=O)c1cccc(OC[C@@H](O)CNC2COC3(CCN(S(=O)(=O)c4ccc5ccccc5c4)CC3)C2)c1` (stereo partly drawn) [Compound 11, 3-((2S)-2-hydroxy-3-(8-(naphthalen-2-ylsulfonyl)-1-oxa-8-azaspiro[4.5]decan-3-ylamino)propoxy)-N-methoxybenzenesulfonamide], the 50% inhibitory concentration (IC50) came to 15.1 nM. In the case of `CCNS(=O)(=O)c1cccc(OC[C@@H](O)CNC2COC3(CCN(S(=O)(=O)c4cccc(-c5ccc(N)nc5)c4)CC3)C2)c1` (stereo partly drawn) [Compound 212, 3-((2S)-3-(8-(3-(6-aminopyridin-3-yl)phenylsulfonyl)-1-oxa-8-azaspiro[4.5]decan-3-ylamino)-2-hydroxypropoxy)-N-ethylbenzenesulfonamide], the IC50 came to 13.6 nM. Next, `CNS(=O)(=O)c1cccc(OC[C@@H](O)CN[C@@H]2COC3(CCN(S(=O)(=O)c4cccc(-c5cnn(C)c5)c4)CC3)C2)c1` [Compound 216, 3-((S)-2-hydroxy-3-((S)-8-(3-(1-methyl-1H-pyrazol-4-yl)phenylsulfonyl)-1-oxa-8-azaspiro[4.5]decan-3-ylamino)propoxy)-N-methylbenzenesulfonamide]: 57.7 nM; `CNC(=O)[C@@H](NS(=O)(=O)c1cccc(OC[C@@H](O)CNC2COC3(CCN(S(=O)(=O)c4ccc5ccccc5c4)CC3)C2)c1)[C@@H](C)O` (stereo partly drawn) [Compound 92, (2S,3R)-3-hydroxy-2-(3-((2S)-2-hydroxy-3-(8-(naphthalen-2-ylsulfonyl)-1-oxa-8-azaspiro[4.5]decan-3-ylamino)propoxy)phenylsulfonamido)-N-methylbutanamide]: 1990 nM.
